In assay [1] the test system is ADAR1 knockout A549 cells. The assay is described as follows: Viability of ADAR1 knockout A549 cells with interferon or drug treatment. It is filed as cell-based, human. How it is done: (§1) For drug treatment assays, cells were plated at a density of 3000 cells per well in a 96-well assay plate. The following day, cells were treated with ruxolitinib (INCB018424) from Selleck Chemicals; MRT67307 hydrocloride (SML0702) from Sigma-Aldrich; human interferon-alphal (#8927) from Cell Signaling; recombinant human IFN-beta 1a (mammalian) protein (114151) and recombinant human IFN-gamma protein (285-IF-100) from R&D Systems. For preincubation drug treatment experiments, cells were plated in the presence of ruxolitinib and were treated with interferon-0 and ruxolitinib the following day. Control wells were treated with dimethylsulfoxide (DMSO). Cell viability was assayed 3 or 6 days after drug treatment with CellTiter-Glo® Luminescent Cell Viability Assay kit (Promega). Viability was normalized to DMSO controls.
for interferon treatment assays, cells were plated at a low density of 3000 cells per well in a 96-well assay plate. The following day, cells were treated with human interferon-alpha 1 (Cell Signaling, #8927) or recombinant human IFN-beta 1a (mammalian) protein (PBL Assay Science, 114151). Control wells were treated with water. Cell viability was assayed 3 or 6 days after drug treatment with CellTiter-Glo© Luminescent Cell Viability Assay kit (Promega). Viability was normalized to controls. Apoptosis was assayed 3 days after interferon treatment with Caspase-Glo®3/7 Assay kit (Promega). Dose curves were obtained using least-squares nonlinear regression on a standard four-parameter logistic model using GraphPad Prism.

In a further assay the target is T1, ADA1 (Homo sapiens, UniProt P00813).
T1 sequence (P00813 1-363): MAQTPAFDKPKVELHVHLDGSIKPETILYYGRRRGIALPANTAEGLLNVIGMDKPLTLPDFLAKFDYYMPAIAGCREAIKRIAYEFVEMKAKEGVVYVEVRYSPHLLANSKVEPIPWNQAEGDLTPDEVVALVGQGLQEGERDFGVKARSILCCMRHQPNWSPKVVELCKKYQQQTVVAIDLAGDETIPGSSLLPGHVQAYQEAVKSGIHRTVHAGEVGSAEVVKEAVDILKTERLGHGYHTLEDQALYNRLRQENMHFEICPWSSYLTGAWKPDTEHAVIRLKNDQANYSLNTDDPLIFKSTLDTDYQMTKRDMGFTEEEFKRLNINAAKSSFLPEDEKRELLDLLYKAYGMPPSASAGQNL
The conditions noted are these: cited from earlier work.

A further assay deals with T2, ADA2 (Homo sapiens, UniProt Q9NZK5).
T2 sequence (Q9NZK5 30-511): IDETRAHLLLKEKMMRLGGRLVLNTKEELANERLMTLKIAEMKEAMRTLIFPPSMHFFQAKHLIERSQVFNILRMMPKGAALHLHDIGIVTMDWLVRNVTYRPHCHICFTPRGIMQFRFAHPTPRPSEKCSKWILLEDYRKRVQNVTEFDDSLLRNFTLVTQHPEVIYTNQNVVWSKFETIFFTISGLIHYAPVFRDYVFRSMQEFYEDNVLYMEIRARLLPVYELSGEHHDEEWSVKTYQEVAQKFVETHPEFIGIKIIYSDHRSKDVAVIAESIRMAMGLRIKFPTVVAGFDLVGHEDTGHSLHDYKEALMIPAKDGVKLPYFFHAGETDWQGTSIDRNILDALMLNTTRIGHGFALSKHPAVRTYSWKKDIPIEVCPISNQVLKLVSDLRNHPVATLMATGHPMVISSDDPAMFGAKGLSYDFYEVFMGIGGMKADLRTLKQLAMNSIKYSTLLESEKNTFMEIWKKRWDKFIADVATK
The settings on record: cited from earlier work.

The subject of assay [2] is interferon stimulated genes in ADAR-dependent cell lines. The assay can be described thus: Immunoblot of interferon stimulated gene expression after inhibitor treatment. It counts as cell-based, human. The settings on record: for ISG expression / interferon signaling: antioxidant treatment of ADAR-dependent cell lines. How it is done:
as §1
Cells were lysed in RIPA lysis buffer (Thermo Scientific) supplemented with 1× protease and phosphatase inhibitor cocktails (Roche). Protein extracts were analyzed by standard immunoblotting with the following antibodies: ADAR1 (D7E2M), MDA5 (D74E4), RIG-I (D14G6), ISG15 (22D2), USP18 (D4E7), PKR (#3072), STING (D2P2F), cGAS (D1D3G), IRF9 (D2T8M), PD-L1 (E1L3N), P-IRF3 Ser396 (4D4G), IRF3 (D6I4C), P-TBK1 Ser172 (D52C2), TBK1 (D1B4), P-EIF2α Ser51 (#9721), and EIF2α (D7D3) from Cell Signaling; P-PKR Thr446 (ab32036) from Abcam; R-actin C4 (sc-47778) from Santa Cruz. All antibodies were used at a dilution of 1:1000 except R-actin which was used at 1:4000). The following secondary antibodies were used at 1:5000 dilution: Goat anti-Rabbit IRDye 800CW (LI-COR, 926-32211) and Goat anti-Mouse IRDye […] (LI-COR, 926-68020). All immunoblots were imaged using the LI-COR digital imaging system and ImageJ.

The test system of a further assay is B16 tumor cells. The assay can be described thus: In vitro cytokine stimulation and growth inhibition assay. It is filed as cell-based, mouse. The settings on record: Adar-deficient versus control B16 tumor cells, 72 hours. How it is done:
FIG. 9 includes 3 panels, identified as panels A, B, and C, which provide exemplary mechanisms of ADAR-induced sensitivity to checkpoint blockade. […] A certain number of B16 tumor cells (50 k; Adar null or control) were stimulated in vitro with cytokine for 72 hours and the cell numbers were then counted. […] A certain number of B16 tumor cells (50 k; Adar null or control) were stimulated with cytokine in vitro, washed to remove cytokine (for IFNβ), and evaluated via IFNβ ELISA. […] A certain number of B16 tumor cells (50 k; Adar null or control) were stimulated in vitro with cytokine for 72 hours and stained for Class I MHC and PD-L1.
Tumor cells were engineered as noted above and plated in DMEM+10% FBS containing the indicated combinations of cytokines: IFN (1,000 U/ml, PBL), IFN (100 ng/ml, Cell Signaling Technologies), TNF (10 ng/ml, PreproTech). For rescue/re-expression experiments, 10,000 cells were plated in 96-well plates and viable cells were enumerated after 72 hours using Cell Titer-Glo® (Promega, G7570). For all other growth inhibition assays, 50,000 cells were plated in 12-well plates and viable cells were counted after 72 hours using the Countess automated cell counting system (Thermo Fisher Scientific, C10227).

The subject of another assay is B16 tumors. The assay is described as follows: B16 tumor challenge (tumor volume, survival). It is filed as in vivo, mouse. The conditions noted are these: topical, every three days. The source says: The designs of these animal studies and procedures were approved by the Dana Farber Cancer Institute IACUC committee. Dana Farber's specific-pathogen free facility was used for the storage and care of all mice. Seven-week old wild-type female C57BL/6J mice were obtained from Jackson laboratories (Bar Harbor, ME). A colony of B6.129S2-Tcra^tm1Mom/J (Tcra) T cell-deficient mice were bred on site. Mice were aged matched to be 7-12 weeks old at the time of tumor inoculation. For screening, 2.0×10^6 library-transduced B16-Cas9 cells resuspended in Hanks Balanced Salt Solution (Gibco, Thermo Fisher Scientific, Waltham, MA) were mixed 1:1 by volume with Matrigel® (Corning, Corning, NY) and subcutaneously injected into the right flank on day 0. Mice were vaccinated with 1.0×10^6 GM-CSF-secreting B16 (GVAX) cells that had been irradiated with […] on days 1 and 4 to elicit an anti-tumor immune response. Subsequently, mice were treated with 100 μg of rat monoclonal anti-PD1 antibody (clone: 29F.1A12) on days 9 and 12 via intraperitoneal injection. For validation assays, 1.0×10^6 tumor cells were subcutaneously injected into the right flank without matrigel. Tumors were measured every 3 days beginning on day 6 after challenge until time of death. Measurements were taken manually by collecting the longest dimension (length) and the longest perpendicular dimension (width). Tumor volume was estimated with the formula: (L×W^2)/2. CO2 inhalation was used to euthanize mice on the day of sacrifice.
The designs of animal studies and procedures were approved by the Dana Farber Cancer Institute IACUC and the Broad Institute IACUC committees. Specific pathogen-free facilities at the Dana Farber and the Broad Institute were used for the storage and care of all mice. Six-week old wild-type female C57BL/6J mice were obtained from Jackson laboratories, Bar Harbor ME A colony of B6.129S2-Tcra^tm1Mom/J (Tcra) T cell-deficient mice were bred on site at the Dana Farber. […] Tumors were measured every 3 days beginning on day 6 after challenge until time of death. […]

[3] abbreviates: animals bearing Adar1 null B16 tumors.

We go through ten compounds from patent US11873486B2, “Modulating dsRNA editing, sensing, and metabolism to increase tumor immunity and improve the efficacy of cancer immunotherapy and/or modulators of intratumoral interferon” (Dana-Farber Cancer Institute, Inc., priority 2017, dated 2024).

Entries after “also recorded” stand apart in the source; their conditions may differ.

With “Type II interferon: recombinant human IFN-gamma protein (R&D Systems)”, in assay [1], the “sensitization to ADAR1 knockout” value is “did not sensitize A549 cells to ADAR1 knockout”.

Turning to `C[C@@H]1O[C@@H](O[C@H]2[C@H](Oc3cc(O)c4c(c3)O[C@H](c3ccc(O)cc3)CC4=O)O[C@H](CO)[C@@H](O)[C@@H]2O)[C@H](O)[C@H](O)[C@H]1O` [naringin], the “inhibition of ADA1” value at ADA1 is “potent ADA1 inhibitor”. `Nc1ccnc2c1ncn2[C@@H]1O[C@H](CO)[C@@H](O)[C@H]1O` [1-deazaadenosine]: the “inhibition of ADA2” value at ADA2 was “can inhibit both ADA1 and ADA2”. Take `COc1cccc2c1C(=O)c1c(O)c3c(c(O)c1C2=O)C[C@@](O)(C(=O)CO)C[C@@H]3O[C@H]1C[C@H](N)[C@H](O)[C@H](C)O1` [doxorubicin]: the “sensitization to ADAR1 knockout” value in assay [1] is reported as “failed to sensitize A549 cells to ADAR1 knockout”. Take `c1ccc2c(c1)[I+]c1ccccc1-2` [DPI, diphenylene iodonium]: the “ISG expression / interferon signaling” value in assay [2] is listed as “partially decreased ISG expression”; in assay [2] (listed as diphenylene iodonium (DPI)), “partially alleviates interferon signaling”.

For the compound IFNγ, the cytokine-induced growth arrest result with B16 tumor cells was “increases IFNβ and IFNγ-induced growth arrest; also recorded: increases susceptibility to IFNβ and IFNγ”.

In the case of `CC(C)Cn1cnc2c(N)nc3ccccc3c21` [imiquimod], in the assay with B16 tumors (setting [3]), the survival result is recorded as “enhanced survival” and the tumor growth entry is recorded as “significantly slowed tumor growth”. For the same compound, the survival entry in the assay with B16 tumors (animals bearing control B16 tumors) was “nor topical therapy with imiquimod, a TLR7 agonist, increased the survival”.

With `Cl.O=C(NCCCNc1nc(Nc2cccc(CN3CCOCC3)c2)ncc1C1CC1)C1CCC1` [MRT67307, MRT67307 hydrocloride], the ISG expression result in assay [2] (TBK1 inhibitor treatment) is reported as “reduced”. Consider “erythro-9-(2-hydroxy-3-nonyl)adenine [EHNA]”, for which the “inhibition of ADA1” value at ADA1 is listed as “specifically inhibits ADA1”. Consider `OC[C@H]1O[C@@H](n2cnc3c2NC=NC[C@H]3O)C[C@@H]1O` [pentostatin], for which the “inhibition of ADA2” value at ADA2 is “can inhibit both ADA1 and ADA2”.
